US9909123B2, “Antisense molecules for treatment of Staphylococcus aureus infection” (priority 2013, dated 2018)
Ends that are not written are not given here.

System: MRSA
Test: FITC assay to monitor cellular uptake of peptides (fluorescence microscopy)
Format: cell-based, Staphylococcus aureus
Settings: 2 hours post-treatment with 1 μM of FITC-peptide agents
Protocol: An FITC assay may be utilized, to monitor cellular uptake of peptides. Peptides were conjugated to fluorescein isothiocyanate (FITC) to monitor uptake using florescence microscopy. FIG. 2A-2B show assay results for several peptides as tested in MRSA (FIG. 2A) and AcB (FIG. 2B) (fluorescent overlays 2 hours post-treatment with 1 μM of FITC peptide agents, scale bar=100 μm).
An FITC assay was utilized to monitor cellular uptake of peptides. Peptides were conjugated to fluorescein isothiocyanate (FITC) to monitor uptake using, florescence microscopy.

**Q.** How did the “cellular entry of FITC-peptide” value turn out when “RFFRFFRFFR (also: FITC label, site not given here) [cell penetrating peptide, tested conjugated to FITC]” was run?
**A.** effective for cellular entry

**Q.** Which “cellular entry of FITC-peptide” value does the source give for “GIGKWLHSAKKFGKAFVGEIMNS (also: FITC label, site not given here) [Magainin-FITC, Magainin 2 cell penetrating peptide conjugated to fluorescein isothiocyanate (FITC)]” here?
**A.** effective for entry into MRSA

**Q.** Which “cellular entry of FITC-peptide” value does the source give for “KFFKFFKFFK (also: FITC label, site not given here) [cell penetrating peptide, tested conjugated to FITC]” here?
**A.** effective for cellular entry
